Measured values: patent US20260022143A1, “Cyclic Peptide Inhibitors of IL-23” (JANSSEN PHARMACEUTICA NV, priority 2022, published 2026)
Positions of bridges follow the written chain, without caps; N, C: chain ends. Non-standard residues stand in square brackets, D forms with d. Residues, ends and D or L forms follow the SMILES beside them. *: point of attachment. Me3N+(CH2)2O(CH2)2O(CH2)2CO = C[N+](C)(C)CCOCCOCCC(=O)*; NH(CH2CH2O)2CH2CH2NMe3+ = C[N+](C)(C)CCOCCOCCN*; Trp(7-Me) = Cc1cccc2c(C[C@H](N)C(=O)O)c[nH]c12; 2Nal = N[C@@H](Cc1ccc2ccccc2c1)C(=O)O; AEF = NCCOc1ccc(C[C@H](N)C(=O)O)cc1; X75 = C[N+](C)(C)CCOCC[N+](C)(C)CC*; dNMeY = CN[C@H](Cc1ccc(O)cc1)C(=O)O; 3Pal = N[C@@H](Cc1cccnc1)C(=O)O; Lys(Me) = CNCCCC[C@H](N)C(=O)O; X7 = COCCOCCOCCOCCOCCOCCC(=O)*; Pen = CC(C)(S)[C@H](N)C(=O)O; αMeK = C[C@](N)(CCCCN)C(=O)O; X84 = CN(CCC[N+](C)(C)C)CC*; Thp = NC1(C(=O)O)CCOCC1; X3 = C[N+](C)(C)CCCCC*; Sar = CNCC(=O)O

experiment: Exposed Polar Surface Area (EPSA); format: physicochemical; details: SFC on Chirex 3014 column; sample 1 mM DMSO stock; read-out: EPSA
Source text: Exposed Polar Surface Area (EPSA) is an experimental descriptor of molecular polarity obtained from chromatographic retention in supercritical fluid chromatography (SFC).
The stationary phase (Chirex 3014(S)-valine and (R)-1-(alpha-naphthyl) ethylamine) was selected for its balance of lipophilic and polar attributes and its capacity to separate compounds with wide polarity differences. The mobile phase consists of methanol (+Ammonium formate) and CO2. Polar compounds are retained stronger under these conditions and a low-slope gradient of methanol achieves elution based on increasing polarity of the mobile phase. Results are normalized using calibration standards generating a linear relationship between retention times and EPSA values. The unit of EPSA is Å^2.
Along with the measurement of compounds of interest, a series of 8 calibration standards (see Materials) are analyzed generating a linear relationship between retention times and EPSA value. The 8 compounds used as calibration standard have their own EPSA value defined by G. Goetz based on the comparison with TPSA (see G. Goetz, L. Philippe and M. Shapiro, “EPSA: A novel supercritical fluid chromatography technique enabling the design of permeable cyclic peptides,” ACS Med. Chem. Lett., vol. 5, pp. 1167-1172, 2014 for more information). The slope from the linear relationship between EPSA values of these eight compounds and their retention times is used to determine the EPSA value of each compound of interest that's measured under the same condition using the equation as below: […]
The mixture of calibrations standard is reinjected every 20 compounds to validate the stability of the retention time.
The mobile phase modifier consists of ammonium formate LC_MS grade (>99%) (CAS number 540-69-2) diluted to 20 mM in HPLC grade Methanol (MeOH, CAS number 67-56-1) and liquid C02 SFC grade (CAS number 124-38-9).
Antipyrine (CAS number: 60-80-0) Chlorpromazine hydrochloride (CAS number: 69-09-0), desipramine hydrochloride (CAS number: […]), pindolol (CAS Number: 13523-86-9), diclofenac (CAS number: 15307-79-6)), m-nitro benzoic acid (CAS number: 121-92-6), bumetanide (CAS number: 28395-03-1), furosemide (CAS number: 54-31-9) were purchased from Sigma Aldrich (Steihneim, Germany).
All analyses were performed on a ultra performance convergence chromatography (UPC™) apparatus (Waters, Milford, MA, USA) equipped with a sample manager, a binary solvent delivery pump (BSM), a column manager, a convergence manager (automated back pressure regulator), a photo diode array detector (DAD) with a high pressure flow cell, and a mass detector simple quadrupole QDa. After the UV detector, the effluent of the SFC was mixed with an eluent consist of mixture MeOH/water (+0.3% Ammonia) 95/5 delivered by a make up pump with a flow rate of 0.4 mL/min and then split to the QDa using a splitter. The instrument was controlled, and data were processed with Masslynx 4.1.
The Analyses were performed using a 4.6×50 mm Chirex 3014(S)-valine and (R)-1-(alpha- naphthyl) ethylamine column (Phenomenex, Le Pecq, France) with 5 um particle and 100A pore size. The flow rate was 4 mL/min with the outlet pressure set to 14 MPa. The injection volume was 2 μL. the mobile phase composition was varied from 5% to 60% modifier at 20%/ min in a linear gradient, holding at 60% for 1.45 min and reverting to the original 5% until the end of the run. Data are acquired during 5 min. An equilibration time of 1 min is applied between 2 injections resulting in an injection every 6 min. each sample is analyzed in duplicate, resulting in a sample to sample turnaround time of 12 min.
The column temperature was set to 35° C. The mass detector was used in full scan from 100 to 800 for small molecules and from 500 to 1200 for peptides.
Each sample is delivered by compound logistics from DMSO stock solution without dilution. The concentration is 1 mM and the volume is 60 μL.

SMILES	EPSA [A^2]
CC(=O)N(C)CCCC[C@@H]1NC(=O)[C@H](Cc2c[nH]c3c(C)cccc23)NC(=O)[C@H]([C@@H](C)O)NC(=O)[C@H](CC(=O)N(C)C)NC(=O)[C@@H](NC(=O)CCOCCOCC[N+](C)(C)C)C(C)(C)SSC(C)(C)[C@@H](C(=O)N[C@@H](Cc2ccc(OCCN(C)CCC[N+](C)(C)C)cc2)C(=O)N[C@@H](Cc2ccc3ccccc3c2)C(=O)NC2(C(=O)N[C@@H](CCCCN(C)C(C)=O)C(=O)N[C@@H](CC(N)=O)C(=O)N[C@@H](Cc3cccnc3)C(=O)N(C)CC(=O)N(C)C)CCOCC2)NC1=O [compound 234, cPEG3aCO-Pen(3)-N(N(Me)2)-T-7MeW-K(NMeAc)-Pen(3)-AEF(MePrpa)-2Nal-THP-K(NMeAc)-N-3Pya-Sar-CON(Me)2] ({Me3N+(CH2)2O(CH2)2O(CH2)2CO}-[Pen]D(NMe2)T[Trp(7-Me)][Lys(Me)](Ac)[Pen]Y(X84)[2Nal][Thp][Lys(Me)](Ac)N[3Pal][Sar]-NMe2; disulfide 1-6)	141
CC(=O)N(C)CCCC[C@@H]1NC(=O)[C@H](Cc2c[nH]c3c(C)cccc23)NC(=O)[C@H](CC(C)C)NC(=O)[C@H](CC(=O)N(C)C)NC(=O)[C@@H](NC(=O)CCOCCOCC[N+](C)(C)C)C(C)(C)SSC(C)(C)[C@@H](C(=O)N[C@@H](Cc2ccc(OCCCCC[N+](C)(C)C)cc2)C(=O)N[C@@H](Cc2ccc3ccccc3c2)C(=O)NC2(C(=O)N[C@@H](CCCCN(C)C(C)=O)C(=O)N[C@@H](CC(N)=O)C(=O)N[C@@H](Cc3cccnc3)C(=O)N(C)CC(=O)N(C)C)CCOCC2)NC1=O [compound 493, cPEG3aCO-Pen(3)-N(N(Me)2)-L-7MeW-K(NMeAc)-Pen(3)-TMAPF-2Nal-THP-K(NMeAc)-N-3Pya-Sar-CON(Me)2] ({Me3N+(CH2)2O(CH2)2O(CH2)2CO}-[Pen]D(NMe2)L[Trp(7-Me)][Lys(Me)](Ac)[Pen]Y(X3)[2Nal][Thp][Lys(Me)](Ac)N[3Pal][Sar]-NMe2; disulfide 1-6)	132
CC(=O)NCCCC[C@@H]1NC(=O)[C@H](Cc2c[nH]c3c(C)cccc23)NC(=O)[C@H]([C@@H](C)O)NC(=O)[C@H](CC(N)=O)NC(=O)[C@@H](NC(=O)CCOCCOCC[N+](C)(C)C)C(C)(C)SSC(C)(C)[C@@H](C(=O)N[C@@H](Cc2ccc(OCCNC(=N)N)cc2)C(=O)N[C@@H](Cc2ccc3ccccc3c2)C(=O)NC2(C(=O)N[C@@H](CCC(=O)O)C(=O)N[C@@H](CC(N)=O)C(=O)N[C@@H](Cc3cncc(C)c3)C(=O)N(C)CC(N)=O)CCOCC2)NC1=O [compound 514, cPEG3aCO-Pen(3)-N-T-7MeW-K(Ac)-Pen(3)-AEF(G)-2Nal-THP-E-N-5MePyridinAla-Sar-CONH2]	248
CCCCCCCCCCCCCC(=O)N[C@@H](CCC(=O)NCCOCCOCC(=O)NCCOCCOCC(=O)N[C@@H](COCCOCC[N+](C)(C)C)C(=O)N[C@@H]1C(=O)N[C@@H](CC(=O)N(C)C)C(=O)N[C@@H]([C@@H](C)O)C(=O)N[C@@H](Cc2c[nH]c3c(C)cccc23)C(=O)N[C@@H](CCCCN(C)C(C)=O)C(=O)N[C@H](C(=O)N[C@@H](Cc2ccc(OCCOCCOCC[N+](C)(C)C)cc2)C(=O)N[C@@H](Cc2ccc3ccccc3c2)C(=O)NC2(C(=O)N[C@@H](CCCCN(C)C(C)=O)C(=O)N[C@@H](CC(N)=O)C(=O)N[C@@H](Cc3cccnc3)C(=O)N(C)CC(=O)N(C)C)CCOCC2)C(C)(C)SSC1(C)C)C(=O)O (relative stereo) [compound 367, C14gEPEG2PEG2CO-APEG2Ser(S*)-Pen(3)-N(N(Me)2)-T-7MeW-K(NMeAc)-Pen(3)-APEG3F-2Nal-THP-K(NMeAc)-N-3Pya-Sar-CON(Me)2]	162
CC(=O)NCCCC[C@@H]1NC(=O)[C@H](Cc2c[nH]c3c(C)cccc23)NC(=O)[C@H]([C@@H](C)O)NC(=O)[C@H](CC(N)=O)NC(=O)[C@@H](NC(C)=O)C(C)(C)SSC(C)(C)[C@@H](C(=O)N[C@@H](Cc2ccc(OCCN)cc2)C(=O)N[C@@H](Cc2ccc3ccccc3c2)C(=O)N[C@@](C)(CCCCN)C(=O)N[C@@H](CCCCNC(C)=O)C(=O)N[C@@H](CC(N)=O)C(=O)N[C@H](Cc2ccccc2)C(=O)N(C)[C@H](Cc2ccc(O)cc2)C(N)=O)NC1=O [compound 20, MeCO-Pen(3)-N-T-7MeW-K(Ac)-Pen(3)-AEF-2Nal-aMeK-K(Ac)-N-f-NMeDTyr-CONH2] (Ac-[Pen]NT[Trp(7-Me)]K(Ac)[Pen][AEF][2Nal][αMeK]K(Ac)N[dF][dNMeY]-NH2; disulfide 1-6 (inferred))	168
CC(=O)N(C)CCCC[C@@H]1NC(=O)[C@H](Cc2c[nH]c3c(C)cccc23)NC(=O)[C@H]([C@@H](C)O)NC(=O)[C@H](CC(=O)N(C)C)NC(=O)[C@@H](NC(=O)CCOCCOCC[N+](C)(C)C)C(C)(C)SSC(C)(C)[C@@H](C(=O)N[C@@H](Cc2ccc(OCC[N+](C)(C)CCOCC[N+](C)(C)C)cc2)C(=O)N[C@@H](Cc2ccc3ccccc3c2)C(=O)NC2(C(=O)N[C@@H](CCCCN(C)C(C)=O)C(=O)N[C@@H](CC(N)=O)C(=O)N[C@@H](Cc3cccnc3)C(=O)N(C)CC(=O)N(C)C)CCOCC2)NC1=O [compound 264, cPEG3aCO-Pen(3)-N(N(Me)2)-T-7MeW-K(NMeAc)-Pen(3)-AEF(aPEG2a)-2Nal-THP-K(NMeAc)-N-3Pya-Sar-CON(Me)2] ({Me3N+(CH2)2O(CH2)2O(CH2)2CO}-[Pen]D(NMe2)T[Trp(7-Me)][Lys(Me)](Ac)[Pen]Y(X75)[2Nal][Thp][Lys(Me)](Ac)N[3Pal][Sar]-NMe2; disulfide 1-6)	151

Now from value to compound:

EPSA [A^2]	SMILES
158	COCCOCCOCCOCCOCCOCCC(=O)N(C)CCCC[C@@H]1NC(=O)[C@H](Cc2c[nH]c3c(C)cccc23)NC(=O)[C@H]([C@@H](C)O)NC(=O)[C@H](CC(N)=O)NC(=O)[C@@H](NC(C)=O)C(C)(C)SSC(C)(C)[C@@H](C(=O)N[C@@H](Cc2ccc(OCCN)cc2)C(=O)N[C@@H](Cc2ccc3ccccc3c2)C(=O)NC2(C(=O)N[C@@H](CCCCNC(C)=O)C(=O)N[C@@H](CC(N)=O)C(=O)N[C@@H](Cc3cccnc3)C(=O)N(C)CC(N)=O)CCOCC2)NC1=O [compound 124] (Ac-[Pen]NT[Trp(7-Me)][Lys(Me)](X7)[Pen][AEF][2Nal][Thp]K(Ac)N[3Pal][Sar]-NH2; disulfide 1-6)
159	CC(=O)NCCCC[C@@H]1NC(=O)[C@H](Cc2c[nH]c3c(C)cccc23)NC(=O)[C@H]([C@@H](C)O)NC(=O)[C@H](CC(N)=O)NC(=O)[C@@H](NC(C)=O)C(C)(C)SSC(C)(C)[C@@H](C(=O)N[C@@H](Cc2ccc(OCCN)cc2)C(=O)N[C@@H](Cc2ccc3ccccc3c2)C(=O)NC2(C(=O)N[C@@H](CCC(=O)O)C(=O)N[C@@H](CC(N)=O)C(=O)N[C@@H](Cc3cccnc3)C(=O)N(C)CC(=O)NCCOCCOCC[N+](C)(C)C)CCOCC2)NC1=O [compound 134] (Ac-[Pen]NT[Trp(7-Me)]K(Ac)[Pen][AEF][2Nal][Thp]EN[3Pal][Sar]-{NH(CH2CH2O)2CH2CH2NMe3+}; disulfide 1-6)
159	CC(=O)N(C)CCCC[C@@H]1NC(=O)[C@H](Cc2c[nH]c3c(C)cccc23)NC(=O)[C@H]([C@@H](C)O)NC(=O)[C@H](CC(=O)N(C)C)NC(=O)[C@@H](NC(=O)CCOCCOCC[N+](C)(C)C)C(C)(C)SSC(C)(C)[C@@H](C(=O)N[C@@H](Cc2ccc(OCCN)cc2)C(=O)N[C@@H](Cc2ccc3ccccc3c2)C(=O)NC2(C(=O)N[C@@H](CCC(=O)N(C)C)C(=O)N[C@@H](CC(N)=O)C(=O)N[C@@H](Cc3cccnc3)C(=O)N(C)CC(N)=O)CCOCC2)NC1=O [compound 150, cPEG3aCO-Pen(3)-N(N(Me)2)-T-7MeW-K(NMeAc)-Pen(3)-AEF-2Nal-THP-Q(N(Me)2)-N-3Pya-Sar-CONH2] ({Me3N+(CH2)2O(CH2)2O(CH2)2CO}-[Pen]D(NMe2)T[Trp(7-Me)][Lys(Me)](Ac)[Pen][AEF][2Nal][Thp]E(NMe2)N[3Pal][Sar]-NH2; disulfide 1-6)
